Reference: the supplement of paper PMC10949913

How the values were obtained:
Experiment in all cases: area under concentration-response curve (viability) (AUC (a.u.)); higher = less active
Details in all cases: 48 h
NCI-H295R = tested on: NCI-H295R
Procedure, shortened: (§1)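 Library compounds were tested at 11 concentrations against three adrenocortical carcinoma cell lines in 1,536-well plates. CellTiter-Glo luminescence was read after 48 h and normalised per plate to vehicle and empty-well controls. Only inhibitory or non-responding curve classes from fitted concentration-response curves contributed AC50 and area under the curve.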

CU-ACC2 = tested on: CU-ACC2
Procedure, shortened: as §1

CU-ACC1 = tested on: CU-ACC1
Procedure, shortened: as §1

C[S+](=O)([O-])c1ccc(-c2nnc(/C=C/c3nnc(-c4ccc(C#N)cc4)o3)n2-c2ccccc2Cl)nc1
area under concentration-response curve (NCI-H295R): 524
area under concentration-response curve (CU-ACC2): 603
area under concentration-response curve (CU-ACC1): 537

CC1=C(/C=C/C(C)=C/C=C/C(C)=C/C=C/C=C(C)/C=C/C=C(C)/C=C/C2=C(C)CCCC2(C)C)C(C)(C)CCC1
area under concentration-response curve (NCI-H295R): 574
area under concentration-response curve (CU-ACC2): 617
area under concentration-response curve (CU-ACC1): 544

Nc1nccn2c1c(-c1cc3cccc(Cl)c3[nH]1)nc2[C@H]1CC[C@H](C(=O)O)CC1
area under concentration-response curve (NCI-H295R): 536
area under concentration-response curve (CU-ACC2): 589
area under concentration-response curve (CU-ACC1): 498

CC(NC1=NC=NC2=C1[NH]C=N2)\C3=C\C4=C(C(=CC=C4)Cl)C(=O)N3C5=CC=CC=C5 (stereo not drawn)
area under concentration-response curve (NCI-H295R): 580
area under concentration-response curve (CU-ACC2): 569
area under concentration-response curve (CU-ACC1): 432

CC(C)NCC(O)COc1ccc(CCOCC2CC2)cc1 (stereo not drawn)
area under concentration-response curve (NCI-H295R): 536
area under concentration-response curve (CU-ACC2): 560
area under concentration-response curve (CU-ACC1): 493

CN(CC1=CC2=C(N\C(=N/C2=O)C)C=C1)C3=CC=C(S3)C(=O)N[C@@H](CCC(O)=O)C(O)=O
area under concentration-response curve (NCI-H295R): 532
area under concentration-response curve (CU-ACC2): 602
area under concentration-response curve (CU-ACC1): 503

COC1=CC(=C2C(=O)N\C(=N/C2=C1)C3=CC(=C(OCCO)C(=C3)C)C)OC
area under concentration-response curve (NCI-H295R): 541
area under concentration-response curve (CU-ACC2): 532
area under concentration-response curve (CU-ACC1): 532

CCN(CC)CCCC(C)Nc1ccnc2cc(Cl)ccc12 (stereo not drawn)
area under concentration-response curve (NCI-H295R): 583
area under concentration-response curve (CU-ACC2): 638
area under concentration-response curve (CU-ACC1): 464

CC(C)C[C@@H]1NC(=O)[C@@H](C(C)C)NC(=O)[C@@H]2CCCN2C(=O)[C@@H](CC(=O)O)NC(=O)[C@@H](Cc2c[nH]c3ccccc23)NC1=O
area under concentration-response curve (NCI-H295R): 550
area under concentration-response curve (CU-ACC2): 604
area under concentration-response curve (CU-ACC1): 489

OCCn1cc(-c2ccc3c(c2)CC/C3=N\O)c(-c2ccncc2)n1
area under concentration-response curve (NCI-H295R): 538
area under concentration-response curve (CU-ACC2): 595
area under concentration-response curve (CU-ACC1): 492

C[C@]\12CC[C@H](O)CC1=C/C[C@@H]3[C@@H]2CC[C@@]\4(C)[C@H]3C\C=C4C5=CN=CC=C5
area under concentration-response curve (NCI-H295R): 509
area under concentration-response curve (CU-ACC2): 588
area under concentration-response curve (CU-ACC1): 522

C[C@]1(c2nc3c(C(N)=O)cccc3[nH]2)CCCN1
area under concentration-response curve (NCI-H295R): 521
area under concentration-response curve (CU-ACC2): 564
area under concentration-response curve (CU-ACC1): 495

Cc1noc(-c2ccc(CSCCC(=O)O)cc2)c1NC(=O)OC(C)c1ccccc1Cl (stereo not drawn)
area under concentration-response curve (NCI-H295R): 505
area under concentration-response curve (CU-ACC2): 557
area under concentration-response curve (CU-ACC1): 469

O=C(O)c1cccc(-c2noc(-c3ccccc3F)n2)c1
area under concentration-response curve (NCI-H295R): 451
area under concentration-response curve (CU-ACC2): 559
area under concentration-response curve (CU-ACC1): 477

C[C@H]1CC[C@H](n2c3cnccc3c3cnc(Nc4ccc5c(n4)CCN(C(=O)CO)C5)nc32)CC1
area under concentration-response curve (NCI-H295R): 596
area under concentration-response curve (CU-ACC2): 622
area under concentration-response curve (CU-ACC1): 601

CC1=CC=C(C=C1)\C2=N\C3=CC=C(Cl)C=C3OC2
area under concentration-response curve (NCI-H295R): 546
area under concentration-response curve (CU-ACC2): 613
area under concentration-response curve (CU-ACC1): 504

COc1ccc(Nc2nccc(NCCO)n2)cc1
area under concentration-response curve (NCI-H295R): 517
area under concentration-response curve (CU-ACC2): 578
area under concentration-response curve (CU-ACC1): 496

O=C1NC(=O)/C(=C/c2ccc(-c3ccc(F)cc3O)o2)S1
area under concentration-response curve (NCI-H295R): 575
area under concentration-response curve (CU-ACC2): 611
area under concentration-response curve (CU-ACC1): 580

CN1CCN(CCCNc2ncc(Cl)c(-c3cc4c(C(=O)NC5CC5)cccc4s3)n2)CC1
area under concentration-response curve (NCI-H295R): 492
area under concentration-response curve (CU-ACC2): 557
area under concentration-response curve (CU-ACC1): 468

C[C@]\12CCC(=O)\C=C1CC[C@H]3[C@@H]4CC[C@](O)(C(=O)CO)[C@@]4(C)C[C@H](O)[C@H]23
area under concentration-response curve (NCI-H295R): 512
area under concentration-response curve (CU-ACC2): 549
area under concentration-response curve (CU-ACC1): 458

CC1=C(C)C=C(N[S+]([O-])(=O)C2=CC3=C(NC(C4C\C=C/C34)C5=CC=C(C=C5)C(O)=O)C=C2)C=C1 (stereo not drawn)
area under concentration-response curve (NCI-H295R): 555
area under concentration-response curve (CU-ACC2): 600
area under concentration-response curve (CU-ACC1): 525

COC(=O)N[C@@H](C)CNc1nccc(-c2cn(C(C)C)nc2-c2cc(Cl)cc(N[S+](C)(=O)[O-])c2F)n1
area under concentration-response curve (NCI-H295R): 539
area under concentration-response curve (CU-ACC2): 566
area under concentration-response curve (CU-ACC1): 497

CCOC1=CC=C(C=C1)N2C(=O)C3=CC=CN=C3/N=C2/[C@@H](C)N(CC4=CC=CN=C4)C(=O)CC5=CC=C(F)C(=C5)C(F)(F)F
area under concentration-response curve (NCI-H295R): 569
area under concentration-response curve (CU-ACC2): 606
area under concentration-response curve (CU-ACC1): 516

O=C1Nc2ccc(I)cc2/C1=C/c1cc(Br)c(O)c(Br)c1
area under concentration-response curve (NCI-H295R): 506
area under concentration-response curve (CU-ACC2): 585
area under concentration-response curve (CU-ACC1): 500

CNC(=O)c1c(C)oc2cc(Oc3ncnc4cc(OC)c(OC)cc34)ccc12
area under concentration-response curve (NCI-H295R): 593
area under concentration-response curve (CU-ACC2): 624
area under concentration-response curve (CU-ACC1): 535

COc1cc(C(=O)N[S+](=O)([O-])c2ccccc2C)ccc1Cc1cn(C)c2ccc(NC(=O)OC3CCCC3)cc12
area under concentration-response curve (NCI-H295R): 488
area under concentration-response curve (CU-ACC2): 595
area under concentration-response curve (CU-ACC1): 513

C[C@]\12CC[C@H](O)CC1=C/CC3C2CC[C@@]\4(C)C3C\C=C4[N]5C=NC6=C5C=CC=C6 (stereo partly drawn)
area under concentration-response curve (NCI-H295R): 548
area under concentration-response curve (CU-ACC2): 516
area under concentration-response curve (CU-ACC1): 540

Cn1c(=O)c2[nH]cnc2n(C)c1=O
area under concentration-response curve (NCI-H295R): 469
area under concentration-response curve (CU-ACC2): 555
area under concentration-response curve (CU-ACC1): 447

CC(NCCc1ccc(O)cc1)C(O)c1ccc(O)cc1 (stereo not drawn)
area under concentration-response curve (NCI-H295R): 496
area under concentration-response curve (CU-ACC2): 592
area under concentration-response curve (CU-ACC1): 523

N#Cc1ccc(Cn2cncc2CN2CCN(c3cccc(Cl)c3)C(=O)C2)cc1
area under concentration-response curve (NCI-H295R): 514
area under concentration-response curve (CU-ACC2): 578
area under concentration-response curve (CU-ACC1): 520

CC(C)Oc1ccc(-c2nc(-c3cccc4c3CC[C@@H]4NCCO)no2)cc1C#N
area under concentration-response curve (NCI-H295R): 481
area under concentration-response curve (CU-ACC2): 502
area under concentration-response curve (CU-ACC1): 370

CNCCN(C)Cc1c[nH]nc1-c1ccc(O[C@H]2C[C@H](OCCC3CCOCC3)C2)cc1
area under concentration-response curve (NCI-H295R): 546
area under concentration-response curve (CU-ACC2): 512
area under concentration-response curve (CU-ACC1): 520

Cc1cc(C)c2c(c1)[C@@H](N(Cc1cc(C(F)(F)F)cc(C(F)(F)F)c1)c1nnn(C)n1)CCCN2C[C@H]1CC[C@H](C(=O)O)CC1
area under concentration-response curve (NCI-H295R): 529
area under concentration-response curve (CU-ACC2): 582
area under concentration-response curve (CU-ACC1): 489

CC(C(C)N1CC(=O)NC(=O)C1)N1CC(=O)NC(=O)C1 (stereo not drawn)
area under concentration-response curve (NCI-H295R): 538
area under concentration-response curve (CU-ACC2): 605
area under concentration-response curve (CU-ACC1): 488

Cc1ccc(-c2ncn(-c3ccc(Nc4nccc(-c5cccc(N6CCOCC6)c5)n4)cc3)n2)cn1
area under concentration-response curve (NCI-H295R): 549
area under concentration-response curve (CU-ACC2): 543
area under concentration-response curve (CU-ACC1): 370

C[C@@H](C1CC[C@@]2(O)C3=CC(=O)[C@@H]4C[C@@H](O)[C@@H](O)C[C@]4(C)[C@H]3CC[C@]12C)[C@H](O)CCC(C)(C)O (stereo partly drawn)
area under concentration-response curve (NCI-H295R): 424
area under concentration-response curve (CU-ACC2): 488
area under concentration-response curve (CU-ACC1): 411

Cc1cc(SCc2sc(-c3ccc(C(F)(F)F)c(F)c3)nc2C)ccc1OCC(=O)O
area under concentration-response curve (NCI-H295R): 565
area under concentration-response curve (CU-ACC2): 493
area under concentration-response curve (CU-ACC1): 539

CCC1=C(C)CN(C(=O)NCCc2ccc(S(=O)(=O)NC(=O)N[C@H]3CC[C@H](C)CC3)cc2)C1=O
area under concentration-response curve (NCI-H295R): 559
area under concentration-response curve (CU-ACC2): 600
area under concentration-response curve (CU-ACC1): 508

[O-]C(=O)C/1=N/C(=O)NC(=O)N1
area under concentration-response curve (NCI-H295R): 551
area under concentration-response curve (CU-ACC2): 608
area under concentration-response curve (CU-ACC1): 418

CN1\C(=C([O-])/C2=CC=CC=C2[S+]1([O-])=O)C(=O)NC3=NC=C(C)S3
area under concentration-response curve (NCI-H295R): 525
area under concentration-response curve (CU-ACC2): 572
area under concentration-response curve (CU-ACC1): 479

C[N+](C)(C)CC(=O)O
area under concentration-response curve (NCI-H295R): 560
area under concentration-response curve (CU-ACC2): 611
area under concentration-response curve (CU-ACC1): 501

Cc1c(C)c2c(c(C)c1O)CCC(C)(COc1ccc(CC3SC(=O)NC3=O)cc1)O2 (stereo not drawn)
area under concentration-response curve (NCI-H295R): 492
area under concentration-response curve (CU-ACC2): 511
area under concentration-response curve (CU-ACC1): 369

NC(=O)C1CCCc2c1[nH]c1ccc(Cl)cc21 (stereo not drawn)
area under concentration-response curve (NCI-H295R): 545
area under concentration-response curve (CU-ACC2): 597
area under concentration-response curve (CU-ACC1): 496

C[C@H]1C[C@@H]2[C@H](CC[C@@]3(C)[C@H]2CC[C@]3(OC(C)=O)C(C)=O)[C@@]\4(C)CCC(=O)\C=C14
area under concentration-response curve (NCI-H295R): 557
area under concentration-response curve (CU-ACC2): 618
area under concentration-response curve (CU-ACC1): 554

CC(C)(CNC(=O)c1cccc(-c2noc(C(F)(F)F)n2)c1)c1coc(-c2ccccc2)n1
area under concentration-response curve (NCI-H295R): 506
area under concentration-response curve (CU-ACC2): 585
area under concentration-response curve (CU-ACC1): 558

C#C[C@]1(O)CC[C@H]2[C@@H]3CCc4cc(OC)ccc4[C@H]3CC[C@@]21C
area under concentration-response curve (NCI-H295R): 457
area under concentration-response curve (CU-ACC2): 475
area under concentration-response curve (CU-ACC1): 414
